Measured values reported in ChEMBL document CHEMBL5375978, “Harnessing the Reactivity of Duclauxin toward Obtaining hPTP1B1-400 Inhibitors” (J Med Chem, 2023).
Active and inactive are the calls of the source. The rule behind the calls is not given here.

Key:
[1] = Acute toxicity in Swiss Webster mouse assessed as animal death at 30 to 300 mg/kg, po and measured for 2 hrs; type: organism-based; conditions: in vivo, dose 30-300 mg/kg
[2] = target: T1, Tyrosine-protein phosphatase non-receptor type 1 (Homo sapiens, UniProt P18031); experiment: Inhibition of wild type N-terminal 6 his tagged human PTP1B (1 to 400 residues) expressed in Escherichia coli (Rosetta, DE3) using p-NPP as substrate preincubated for 10 mins followed by substrate addition and measured after 20 mins by absorbance based analysis
T1 sequence (P18031 whole entry): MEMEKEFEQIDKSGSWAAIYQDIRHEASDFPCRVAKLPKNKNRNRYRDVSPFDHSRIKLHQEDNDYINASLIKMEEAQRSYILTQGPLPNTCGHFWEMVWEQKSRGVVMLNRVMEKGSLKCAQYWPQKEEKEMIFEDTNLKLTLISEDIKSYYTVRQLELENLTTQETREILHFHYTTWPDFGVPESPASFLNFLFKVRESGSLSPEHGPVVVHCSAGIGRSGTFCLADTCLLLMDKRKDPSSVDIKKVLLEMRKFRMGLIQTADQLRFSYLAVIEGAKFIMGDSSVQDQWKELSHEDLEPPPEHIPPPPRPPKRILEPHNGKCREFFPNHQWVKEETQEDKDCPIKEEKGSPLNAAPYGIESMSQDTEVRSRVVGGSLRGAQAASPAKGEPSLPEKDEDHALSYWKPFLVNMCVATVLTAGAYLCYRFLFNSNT

Mus musculus [3] = species: Mus musculus; experiment: Hypoglycemic activity in Swiss Webster mouse assessed as reduction in blood glucose level preincubated for 30 mins followed by insulin dose and measured at upto 120 mins by insulin tolerance test; type: functional, organism-based; conditions: time <= 150.0 min
[4] = Acute toxicity in Swiss Webster mouse assessed as macroscopic damage in internal organs at 30 to 300 mg/kg, po and measured after 14 days; type: organism-based; conditions: in vivo, 336 h, dose 30-300 mg/kg, time 14 day
[5] = Acute toxicity in Swiss Webster mouse assessed as ataxia at 30 to 300 mg/kg, po and measured for 2 hrs; type: organism-based; conditions: in vivo, dose 30-300 mg/kg
[6] = Acute toxicity in Swiss Webster mouse assessed as sedation at 30 to 300 mg/kg, po and measured for 2 hrs; type: organism-based; conditions: in vivo, dose 30-300 mg/kg
[7] = Acute toxicity in Swiss Webster mouse assessed as animal death at 30 to 300 mg/kg, po and measured after 14 days; type: organism-based; conditions: in vivo, 336 h, dose 30-300 mg/kg, time 14 day
Mus musculus [8] = experiment: Hypoglycemic activity in Swiss Webster mouse assessed as reduction in blood glucose level at 3 to 30 mg/kg preincubated for 30 mins followed by insulin dose and measured after 60 to 120 mins by insulin tolerance test; type: functional, organism-based; conditions: dose 3-30 mg/kg, time 90-150 min
[9] = Acute toxicity in Swiss Webster mouse assessed as lethal dose; conditions: in vivo
[10] = target: T2, Tyrosine-protein phosphatase non-receptor type 1 (Homo sapiens) (UniProt P18031); experiment: Binding affinity to wild type N-terminal 6 his tagged human PTP1B (1 to 400 residues) expressed in Escherichia coli (Rosetta, DE3) assessed as affinity constant by fluorescence based analysis
T2 sequence (whole entry): T1 sequence (P18031 whole entry)

[11] = Acute toxicity in Swiss Webster mouse assessed as change in heart rate at 30 to 300 mg/kg, po and measured for 2 hrs; type: organism-based; conditions: in vivo, dose 30-300 mg/kg
[12] = Acute toxicity in Swiss Webster mouse assessed as hyperactivity at 30 to 300 mg/kg, po and measured for 2 hrs; type: organism-based; conditions: in vivo, dose 30-300 mg/kg
[13] = Acute toxicity in Swiss Webster mouse assessed as loss of motor activity at 30 to 300 mg/kg, po and measured for 2 hrs; type: organism-based; conditions: in vivo, dose 30-300 mg/kg
[14] = Acute toxicity in Swiss Webster mouse assessed as effect on body weight loss at 30 to 300 mg/kg, po and measured after 14 days; type: organism-based; conditions: in vivo, 336 h, dose 30-300 mg/kg, time 14 day
[15] = target: T2, Tyrosine-protein phosphatase non-receptor type 1 (Homo sapiens); experiment: Inhibition of wild type N-terminal 6 his tagged human PTP1B (1 to 400 residues) expressed in Escherichia coli (Rosetta, DE3) using p-NPP as substrate at 100 uM preincubated for 10 mins followed by substrate addition and measured after 20 mins by absorbance based analysis; conditions: time 30.0 min
[16] = Acute toxicity in Swiss Webster mouse assessed as loss of motor activity at 10 to 500 mg/kg, po and measured for 2 hrs; type: organism-based; conditions: in vivo, dose 10-500 mg/kg
[17] = Acute toxicity in Swiss Webster mouse assessed as macroscopic damage in internal organs at 10 to 500 mg/kg, po and measured after 14 days; type: organism-based; conditions: in vivo, 336 h, dose 10-500 mg/kg, time 14 day
[18] = Acute toxicity in Swiss Webster mouse assessed as hyperactivity at 10 to 500 mg/kg, po and measured for 2 hrs; type: organism-based; conditions: in vivo, dose 10-500 mg/kg
[19] = Acute toxicity in Swiss Webster mouse assessed as animal death at 10 to 500 mg/kg, po and measured for 2 hrs; type: organism-based; conditions: in vivo, dose 10-500 mg/kg
[20] = Acute toxicity in Swiss Webster mouse assessed as change in heart rate at 10 to 500 mg/kg, po and measured for 2 hrs; type: organism-based; conditions: in vivo, dose 10-500 mg/kg
[21] = Acute toxicity in Swiss Webster mouse assessed as animal death at 10 to 500 mg/kg, po and measured after 14 days; type: organism-based; conditions: in vivo, 336 h, dose 10-500 mg/kg, time 14 day
[22] = Acute toxicity in Swiss Webster mouse assessed as ataxia at 10 to 500 mg/kg, po and measured for 2 hrs; type: organism-based; conditions: in vivo, dose 10-500 mg/kg
[23] = Acute toxicity in Swiss Webster mouse assessed as sedation at 10 to 500 mg/kg, po and measured for 2 hrs; type: organism-based; conditions: in vivo, dose 10-500 mg/kg
[24] = Acute toxicity in Swiss Webster mouse assessed as effect on body weight loss at 10 to 500 mg/kg, po and measured after 14 days; type: organism-based; conditions: in vivo, 336 h, dose 10-500 mg/kg, time 14 day

For `CC(=O)O[C@H]1[C@@H]2C(=O)c3c(C)cc(O)c4c3[C@@]1(COC4=O)C1=C2c2c(C)cc(O)c3c(=O)n(-c4ccc([N+](=O)[O-])cc4)cc(c23)C1=O`, the Activity [1] was “Non-Toxic”, the IC50 [2] was 3.1 µM and the Activity (Mus musculus [3]) was “Dose-Dependent Effect”. The Activity [4] was “Non-Toxic”, the Activity [5] was “Non-Toxic” and the Activity [6] was “Non-Toxic”. For the same compound, the Activity [7] was “Non-Toxic”, the Activity (Mus musculus [8]) was “Active” and the LD50 [9] was 300 mg/kg. The Ka [10] was 2.9 10^5/M, the Activity [11] was “Non-Toxic” and the Activity [12] was “Non-Toxic”. For the same compound, the Activity [13] was “Non-Toxic” and the Activity [14] was “Non-Toxic”.
For `CO[C@@]12c3c(C)cc(O)c4c(=O)n(-c5ccccc5)cc(c34)C(=O)[C@@H]1[C@]13COC(=O)c4c(O)cc(C)c(c41)C(=O)[C@H]2[C@@H]3OC(C)=O`, the inhibition [15] was “inactive”.
For `CO[C@@]12c3c(C)cc(O)c4c(=O)n([C@@H](CC(=O)O)C(=O)O)cc(c34)C(=O)[C@@H]1[C@]13COC(=O)c4c(O)cc(C)c(c41)C(=O)[C@H]2[C@@H]3OC(C)=O`, the inhibition [15] was “inactive”.
For `CO[C@@]12c3c(C)cc(O)c4c(=O)n([C@H](C(=O)O)C(C)C)cc(c34)C(=O)[C@@H]1[C@]13COC(=O)c4c(O)cc(C)c(c41)C(=O)[C@H]2[C@@H]3OC(C)=O`, the inhibition [15] was “inactive”.
With `CO[C@@]12c3c(C)cc(O)c4c(=O)n(-c5ccc([N+](=O)[O-])cc5)cc(c34)C(=O)[C@@H]1[C@]13COC(=O)c4c(O)cc(C)c(c41)C(=O)[C@H]2[C@@H]3OC(C)=O` the IC50 [2] was 7.7 µM and the Ka [10] was 2.1 10^5/M.
For `CO[C@@]12c3c(C)cc(O)c4c(=O)occ(c34)C(=O)[C@@H]1[C@]13COC(=O)c4c(O)cc(C)c(c41)C(=O)[C@H]2[C@@H]3OC(C)=O`, the Activity [16] was “Non-Toxic”, the Activity [17] was “Non-Toxic” and the IC50 [2] was 35.6 µM. For the same compound, the Activity [18] was “Non-Toxic”, the Activity [19] was “Non-Toxic” and the Activity [20] was “Non-Toxic”. The Activity [21] was “Non-Toxic”, the Activity [22] was “Non-Toxic” and the Activity [23] was “Non-Toxic”. The LD50 [9] was 500 mg/kg, the Ka [10] was 2 10^5/M and the Activity [24] was “Non-Toxic”.
